Measurements: US20130184272A1, “DIABETES THERAPEUTIC AGENT” (TAKEDA PHARMACEUTICAL COMPANY LIMITED, priority 2010, published 2013)

Assays:
[1] = tested on: Mouse-derived myoblast line C2C12 cell; experiment: Cell differentiation promoting activity in myoblast (creatine kinase activity); assay type: cell-based; conditions: Mus musculus, C2C12, 48 h, 2 days, without compound = 100%, read-out: creatine kinase activating action (%); for activity at 0.01 µM: compound at 0.01 μM (**); for activity at 1 µM: compound at 1 μM
Protocol: • (1) Mouse-derived myoblast line C2C12 cell (Dainippon Pharmaceutical Co., Ltd.) was subcultured in a high glucose Eagle's modified Dulbecco's medium (GIBCO) added with 10% calf fetal bovine serum (GIBCO), 100 unit/mL penicillin and 100 μg/mL streptomycin (hereinafter to be referred to as a growth medium), plated at 5000 cells/cm^2 and cultured at 37° C., under 5% CO2. • (2) When the cells reached subconfluence of not less than 90%, the medium was exchanged with high glucose Eagle's modified Dulbecco's medium (GIBCO) added with (i) 2% horse serum (GIBCO) and (ii) penicillin, streptomycin and a test compound (hereinafter to be referred to as a differentiation medium) and the cells were cultured for 2 days. To the control group was added DMSO solution instead of the test compound. • (3) The cells were washed with PBS, 0.5% NP-40 solution was added, and the cells were lysed by freeze-thawing. The cell extract was centrifuged and the creatine kinase activity in the supernatant was measured as an index of muscle differentiation. The creatine kinase activity was measured using CPKII Test Wako (Wako Pure Chemical Industries, Ltd.) according to the manual of the kit.
The numerical values in Table 1 show creatine kinase activity of the compound addition group when the creatine kinase activity without addition of the compound is 100%, and * means measurement with addition of the compound at 10 μM, ** at 0.01 μM, and others at 1 μM.

C2C12 cell = experiment: Sugar metabolism promoting activity in muscle cell (lactic acid production); assay type: cell-based, Mouse; conditions: Mus musculus, 48 h; compound 1 μM, 2 days, C2C12 myotubes; without drug = 100%; read-out: lactic acid production promoting action (%)
Protocol: • (1) In the same manner as in Example 1, C2C12 cell was cultured in a growth medium. After reaching subconfluence of not less than 90%, the medium was exchanged with a differentiation medium and the cells were cultured for about 7 days while exchanging the medium every 2 or 3 days until the cells differentiated to form a myotube. • (2) After confirmation of myotube formation under a microscope, the test compound (1 μM) was added to a differentiation medium and cultured for 2 days. The cells were washed with Krebs-Ringer HEPES phosphate buffer (10 mM HEPES, pH 7.4, 131 mM NaCl, 4.7 mM KCl, 2.5 mM CaCl2—2H2O, 1.2 mM MgSO4—7H2O, 1.2 mM KH2PO4), the medium was exchanged with Krebs-Ringer HEPES phosphate buffer added with 5 mM glucose, 0.2% fatty acid-free bovine serum albumin, and cultured at 37° C. for 4 hr. • (3) The lactic acid concentration of the culture supernatant was measured using Detarminer LA kit (Kyowa Medex Co., Ltd.).
The numerical values in Table 2 show the concentration of the compound addition group with the concentration of lactic acid without addition of a drug as 100%.

Female KKA^y mice = experiment: Anti-diabetes action and dyslipidemia improving effect in KKA^y mouse; assay type: in vivo; conditions: 2 weeks, control group = 100
Protocol: Female KKA^y mice (12-week-old, CLEA Japan, Inc.) were bred while allowing free ingestion of both feed and water. The mice were bred for acclimation with powder CE-2 (CLEA Japan, Inc.) from 2 weeks before administration of the compound. The body weight and plasma markers were measured and, at 14 weeks of age, they were divided such that the measured values were uniform with those of the control group. The compound of Reference Example 1, 2, 7, 8, 9 or 22 was administered for 2 weeks in a mixed feed (0.01-0.0001%). On the last day, plasma levels of glucose, insulin, total cholesterol and neutral lipid were measured.

Structure (SMILES): Cn1ncc2c1-c1c(Oc3ccc(F)cc3)sc(C(N)=O)c1CC2 [Ref. Ex. 2, 8-(4-fluorophenoxy)-1-methyl-4,5-dihydro-1H-thieno[3,4-g]indazole-6-carboxamide]
- activity at 0.01 µM [1]: 175%
- activity at 1 µM (C2C12 cell): 159%
- plasma glucose (%) (Female KKA^y mice; mixed feed dose 0.0003 %): 49.0 ± 7.1%
- plasma neutral lipid (%) (Female KKA^y mice; mixed feed dose 0.0003 %): 40.4 ± 6.6%
- plasma total cholesterol (%) (Female KKA^y mice; mixed feed dose 0.0003 %): 62.4 ± 7.1%

Structure (SMILES): Cn1ncc2c1-c1c(Oc3ccc(OC(F)(F)F)cc3)sc(C(N)=O)c1CC2 [Ref. Ex. 8, 1-methyl-8-[4-(trifluoromethoxy)phenoxy]-4,5-dihydro-1H-thieno[3,4-g]indazole-6-carboxamide]
- activity at 0.01 µM [1]: 190%
- activity at 1 µM (C2C12 cell): 274%
- plasma glucose (%) (Female KKA^y mice; mixed feed dose 0.0003 %): 78.2 ± 22.2%
- plasma neutral lipid (%) (Female KKA^y mice; mixed feed dose 0.0003 %): 72.2 ± 22.1%
- plasma total cholesterol (%) (Female KKA^y mice; mixed feed dose 0.0003 %): 85.7 ± 11.5%

Structure (SMILES): Cn1ncc2c1-c1c(Oc3ccc4c(c3)OCO4)sc(C(N)=O)c1CC2 [Ref. Ex. 9, 8-(1,3-benzodioxol-5-yloxy)-1-methyl-4,5-dihydro-1H-thieno[3,4-g]indazole-6-carboxamide]
- activity at 0.01 µM [1]: 171%
- activity at 1 µM (C2C12 cell): 196%
- plasma glucose (%) (Female KKA^y mice; mixed feed dose 0.001 %): 42.9 ± 3.7%
- plasma insulin (%) (Female KKA^y mice; mixed feed dose 0.001 %): 13.7 ± 21.1%
- plasma neutral lipid (%) (Female KKA^y mice; mixed feed dose 0.001 %): 51.0 ± 11.9%
- plasma total cholesterol (%) (Female KKA^y mice; mixed feed dose 0.001 %): 74.5 ± 14.4%

Structure (SMILES): CC(=O)Nc1ccc(Oc2sc(C(N)=O)c3c2-c2c(cnn2C)CC3)cc1 [Ref. Ex. 22, 8-[4-(acetylamino)phenoxy]-1-methyl-4,5-dihydro-1H-thieno[3,4-g]indazole-6-carboxamide]
- activity at 0.01 µM [1]: 195%
- activity at 1 µM (C2C12 cell): 311%
- plasma glucose (%) (Female KKA^y mice; mixed feed dose 0.0003 %): 60.9 ± 27.1%
- plasma neutral lipid (%) (Female KKA^y mice; mixed feed dose 0.0003 %): 42.3 ± 7.2%
- plasma total cholesterol (%) (Female KKA^y mice; mixed feed dose 0.0003 %): 71.0 ± 7.3%

Structure (SMILES): Cn1ncc2c1-c1c(Oc3ncccn3)sc(C(N)=O)c1CC2 [Ref. Ex. 37, 1-methyl-8-(pyrimidin-2-yloxy)-4,5-dihydro-1H-thieno[3,4-g]indazole-6-carboxamide]
- activity at 1 µM [1]: 129%
- activity at 1 µM (C2C12 cell): 255%

Structure (SMILES): Cc1cccc(Oc2sc(C(N)=O)c3c2-c2c(cnn2C)CC3)n1 [Ref. Ex. 38, 1-methyl-8-[(6-methylpyridin-2-yl)oxy]-4,5-dihydro-1H-thieno[3,4-g]indazole-6-carboxamide]
- activity at 1 µM [1]: 152%
- activity at 1 µM (C2C12 cell): 157%

Structure (SMILES): Cn1ncc2c1-c1c(S(=O)(=O)c3ccc4c(c3)OCO4)sc(C(N)=O)c1CC2 [Ref. Ex. 39, 8-(1,3-benzodioxol-5-ylsulfonyl)-1-methyl-4,5-dihydro-1H-thieno[3,4-g]indazole-6-carboxamide]
- activity at 1 µM [1]: 176%
- activity at 1 µM (C2C12 cell): 207%

Structure (SMILES): Cn1ncc2c1-c1c(Oc3cccnc3OCCN3CCCC3=O)sc(C(N)=O)c1CC2 [Ref. Ex. 40, 1-methyl-8-({2-[2-(2-oxopyrrolidin-1-yl)ethoxy]pyridin-3-yl}oxy)-4,5-dihydro-1H-thieno[3,4-g]indazole-6-carboxamide]
- activity at 1 µM [1]: 120%
- activity at 1 µM (C2C12 cell): 120%

Structure (SMILES): CN(CCOc1ncccc1Oc1sc(C(N)=O)c2c1-c1c(cnn1C)CC2)c1ccccc1 [Ref. Ex. 41, 1-methyl-8-[(2-{2-[methyl(phenyl)amino]ethoxy}pyridin-3-yl)oxy]-4,5-dihydro-1H-thieno[3,4-g]indazole-6-carboxamide]
- activity at 1 µM [1]: 130%
- activity at 1 µM (C2C12 cell): 120%

Structure (SMILES): COCCOc1ccc(Oc2sc(C(N)=O)c3c2-c2c(cnn2C)CC3)cn1 [Ref. Ex. 42, 8-{[6-(2-methoxyethoxy)pyridin-3-yl]oxy}-1-methyl-4,5-dihydro-1H-thieno[3,4-g]indazole-6-carboxamide]
- activity at 0.01 µM [1]: 179%
- activity at 1 µM (C2C12 cell): 319%
